The data set is described as follows: Exenatide delivery from liquid patch with permeability enhancer through microporated abdomen. The settings on record: hairless rat abdomen microporated; patch with 20 OuL solution of exenatide (10.5 mg/mL) and agent (3% w/v); fresh solution every four hours.

`O=C([O-])CC(O)(CC(=O)[O-])C(=O)O.[Na+].[Na+]` [disodium citrate]: the “exenatide levels over 24 hours” value is recorded as “roughly steady levels”.

The values above are taken from patent publication US10493254B2, “Permeant delivery system and methods for use thereof” (priority 2008, dated 2019).
